Measured values reported in article PMC4626104, “Inhibition on Proteasome β1 Subunit Might Contribute to the Anti-Cancer Effects of Fangchinoline in Human Prostate Cancer Cells” (PLoS ONE, 2015).
Like-named read-outs stand apart in the source and are kept apart here.

Key:
[1] = test system: T1, proteasome of PC-3 tumor xenografts; experiment: Proteasome activities of tumor xenografts; format: in vivo, nude mice
T1 construct: from tissue; host or cells: PC-3 tumour xenografts from Balb/c-nu-nu mice, homogenate supernatant
Method: Cells were treated with either solvent control (0.1% DMSO), fangchinoline at different concentrations, or 1 μM carfilzomib (positive control) for 24 h at 37 °C. The enzymatic activities of cellular proteasome in cell lysate were measured as reported in our previous paper. Briefly, cells were harvested, washed with PBS and then lysed in proteasome activity assay buffer for 30 min at 4°C. The homogenate was then centrifuged at 12000 × g for 30 min at 4°C. The supernatant was collected as whole cell extract and the protein content in the supernatant was measured with the Bradford reagent. Catalytic activities of cellular proteasome were assayed by adding whole cell extract (containing 30 μg protein) to 100 μL of proteasome activity assay buffer containing 50 μM fluorogenic peptide substrates such as Z-LLE-AMC for detecting C-L activity, Z-ARR-AMC for detecting T-L activity or Suc-LLVY-AMC for detecting CT-L activity, respectively. The release of fluorogenic AMC from the peptide substrates was then measured as described above.
Male nude immunodeficient mice Balb/c-nu-nu, aged 4 weeks, were purchased from Shanghai Experimental Animal Center. […] Tumor sizes were measured every 4 days using calipers and their volumes were calculated using a standard formula: width^2×length/2. […] Body weight was measured daily. […]

[2] = target: T2, recombinant human proteasome β1 subunit (Homo sapiens, UniProt P28072); experiment: Enzyme activity of recombinant proteasome catalytic β1 subunit (Z-LLE-AMC); format: biochemical; conditions: 50 μM Z-LLE-AMC, 2 h incubation
T2 construct: His-Tag; made in house; host or cells: Escherichia coli
T2 sequence (P28072 1-239): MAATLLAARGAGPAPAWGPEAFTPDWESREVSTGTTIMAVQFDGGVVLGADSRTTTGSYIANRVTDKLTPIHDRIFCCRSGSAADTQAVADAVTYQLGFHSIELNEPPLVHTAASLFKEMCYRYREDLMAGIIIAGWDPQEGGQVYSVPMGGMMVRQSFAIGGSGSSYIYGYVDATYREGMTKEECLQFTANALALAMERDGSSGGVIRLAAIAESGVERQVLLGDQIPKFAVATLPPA
Method: Briefly, catalytic activity of the recombinant human proteasome β1 subunit was assayed by adding recombinant β1 subunit protein (30 μg) to 100 μL of proteasome activity assay buffer (10 mM Tris-HCL, pH 7.8, 5 mM adenosine triphosphate, 0.5 mM dithiothreitol and 5 mM MgCL2•6H2O) containing 50 μM Z-LLE-AMC in the presence of fangchinoline or tetrandrine at different concentrations or not. The hydrolase activity of the proteasome catalytic β1 subunit could release the fluorogenic AMC component from substrate Z-LLE-AMC and the AMC release was measured after 2 h incubation using a Microplate Reader Bio-Rad 550 with excitation and emission wavelengths of 360 and 465 nm, respectively.

LnCap cells = experiment: MTT assay of cell proliferation, LnCap cells; format: cell-based; conditions: Homo sapiens, read-out: IC50 inhibiting cell proliferation
Method: The inhibitive effects of fangchinoline on proliferation of PC-3 cells or LnCap cells was observed by checking cell viability of cells using MTT assay as described before. Briefly, cells were seeded in 96-well plates at a density of 5×10^4 cells/mL for PC-3 cell and 4×10^4 cells/mL for LnCap cells. After overnight culture, the media were changed into fresh media containing various concentrations of fangchinoline or 0.1% DMSO (solvent control) for 24, 48 h or 72 h. Cell viability was evaluated by measuring the mitochondrial-dependent conversion of the yellow tetrazolium salt MTT to purple formazan crystals by metabolic active cells. The optical density (proportional to the number of live cells) was assessed with a Microplate Reader Bio-Rad 550 at 570 nm. IC50 value (half-maximal inhibitory concentration) was calculated by the Logit method.

For `COc1ccc2cc1Oc1ccc(cc1)C[C@H]1c3cc(c(OC)cc3CCN1C)Oc1c(O)c(OC)cc3c1[C@H](C2)N(C)CC3` [fangchinoline], the “Significance of decrease in proteasome activity of tumor xenografts” value ([1]; 50 mg/kg group) was “significant”, the “Proteasome activities of tumor xenografts compared with vehicle control” value ([1]; fangchinoline-treated groups (25 and 50 mg/kg)) was “decreased” and the “Inhibition of enzyme activity of recombinant proteasome β1 subunit” value [2] was “dose-dependently inhibited”. It also gave an IC50 (LnCap cells; 24 h) of 36.2 ± 6.33 µM, an IC50 (LnCap cells; 48 h) of 11.6 ± 0.22 µM and an IC50 (LnCap cells; 72 h) of 12.7 ± 0.59 µM.
